Data: patent publication US20240166631A1, “COMPOUND, METHOD FOR PRODUCING AND METHOD FOR STORING COMPOUND, METHOD FOR PRODUCING TARGETING AGENT, AND COMPOSITION” (NIHON MEDI-PHYSICS CO., LTD, priority 2021, published 2024)
One block for each compound: values may come before it.

Experiment: Evaluation of storage stability: purity of stored solid DOTAGA-DBCO by HPLC area percentage
Assay type: physicochemical
Conditions: for long-term storage stability (in words): refrigerating or freezing conditions, after 6 months storage
Description: Thereafter, the brown vial containing DOTAGA-DBCO was placed under each of the conditions: room temperature (Example 1: 21 to 25° C.); high temperature (Example 2: 40° C.); refrigerating (Example 3: 5° C.); and freezing (Example 4: -20° C.), and stored for a predetermined period.
Thereafter, the colorless transparent glass vial containing DOTAGA-DBCO was placed under the condition of room temperature (Example 5: 19 to 23° C.) and stored for a predetermined period.
Subsequently, DOTAGA-DBCO obtained by drying in the same manner as in Examples 1 to 4 was put in a brown vial, and the brown vial was placed under each of the conditions: room temperature (Comparative Example 1: 21 to 25° C.); and high temperature (Comparative Example 2: 40° C.), and stored for a predetermined period.
For DOTAGA-DBCOs in each of Examples and Comparative Examples, the purity was measured by the following measurement method at each time point: at the start of storage, after 7 days storage, after 1 month storage, after 3 months storage, and after 6 months storage. The smaller deterioration in purity with respect to the purity at the start of storage, the more excellent the storage stability.
1.0 mg of the objective compound was precisely weighed. For Examples 1 and 2 and Comparative Examples 1 and 2, a mixture of 10 mmol/L ammonium formate solution (pH 3.0)/acetonitrile for liquid chromatography (95:5) was added to make an exactly 10 mL sample solution. For Examples 3 and 4, a mixture of 10 mmol/L ammonium formate solution (pH 3.0)/methanol for liquid chromatography (95:5) was added to make an exactly 10 mL sample solution. For Example 5, methanol for liquid chromatography was added to make an exactly 10 mL sample solution.
For 10 μL of each of these sample solutions, high performance liquid chromatography measurement was conducted under the following conditions. The peak area of the sample solution was measured with automatic integration method, and the amount of these compounds was determined through area percentage method. Each sample solution was prepared one time and measured 3 times. The arithmetic average value of the three measurement results was defined as purity (%). Note that, at the start of storage, each sample solution was prepared and measured one time, respectively.
• Detector (1): ultraviolet absorptiometer (measurement wavelength: 290 nm, 308 nm) • Detector (2): ACQ-QDa (Positive scan: cone voltage 15 V, capillary voltage 0.8 V; Negative scan: cone voltage 15 V, capillary voltage 0.8 V, scanning range: m/z 50 to 1200) • Column: a stainless steel tube having an inner diameter of 4.6 mm and a length of 10 cm, packed with 3.5 μm octadecylsilylated silica gel for liquid chromatography (XBridge C18) • Column temperature: maintained at a constant temperature of about 25° C.
• Mobile phase: (Mobile phase A) 10 mmol/L ammonium formate solution (pH 3.0) and (Mobile phase B) acetonitrile were used for liquid feeding while controlling the concentration gradient (vol %) in the order of the following (i) to (v). The flow rate of each mobile phase was 1 mL/min.

[1] = storage conditions: room temperature
[2] = stored at 5° C. (refrigerating)

- Purity (%) of compound at storage start (storage conditions: −20° C. (freezing)): 96.9%
- Purity (%) of compound after 1 month (stored at −20° C. (freezing)): 97.6%
- Purity (%) of compound after 3 months (stored at −20° C. (freezing)): 93.5%
- Purity (%) of compound after 6 months (stored at −20° C. (freezing)): 95.5%
- Purity (%) of compound after 7 days (stored at −20° C. (freezing)): 97.4%
SMILES: O=C(O)CN1CCN(CC(=O)O)CCN(C(CCC(=O)NCCC(=O)N2Cc3ccccc3C#Cc3ccccc32)C(=O)O)CCN(CC(=O)O)CC1 (stereo not shown) [Example 4, DOTAGA-DBCO]
- long-term storage stability (in words): purity at the start of storage is maintained even after 6 months storage

- Purity (%) of compound at storage start [1]: 97.6%
- Purity (%) of compound after 1 month (stored at room temperature): 96.9%
- Purity (%) of compound after 3 months (stored at room temperature): 95.7%
- Purity (%) of compound after 6 months (stored at room temperature): 93.6%
- Purity (%) of compound after 7 days (stored at room temperature): 97.1%
SMILES: O=C(O)CN1CCN(CC(=O)O)CCN(C(CCC(=O)NCCC(=O)N2Cc3ccccc3C#Cc3ccccc32)C(=O)O)CCN(CC(=O)O)CC1 (stereo not shown) [Example 1, DOTAGA-DBCO]

- Purity (%) of compound at storage start (storage conditions: 40° C.): 96.4%
- Purity (%) of compound after 1 month (stored at 40° C.): 52.2%
- Purity (%) of compound after 7 days (stored at 40° C.): 86.1%
SMILES: O=C(O)CN1CCN(CC(=O)O)CCN(C(CCC(=O)NCCC(=O)N2Cc3ccccc3C#Cc3ccccc32)C(=O)O)CCN(CC(=O)O)CC1 (stereo not shown) [Comparative Example 2, DOTAGA-DBCO]

- Purity (%) of compound at storage start (storage conditions: 5° C. (refrigerating)): 96.9%
- Purity (%) of compound after 1 month [2]: 97.0%
- Purity (%) of compound after 3 months [2]: 93.2%
- Purity (%) of compound after 6 months [2]: 96.8%
- Purity (%) of compound after 7 days [2]: 97.4%
SMILES: O=C(O)CN1CCN(CC(=O)O)CCN(C(CCC(=O)NCCC(=O)N2Cc3ccccc3C#Cc3ccccc32)C(=O)O)CCN(CC(=O)O)CC1 (stereo not shown) [Example 3, DOTAGA-DBCO]
- long-term storage stability (in words): purity at the start of storage is maintained even after 6 months storage

- Purity (%) of compound at storage start [1]: 96.4%
- Purity (%) of compound after 1 month (stored at room temperature): 90.9%
- Purity (%) of compound after 7 days (stored at room temperature): 95.5%
SMILES: O=C(O)CN1CCN(CC(=O)O)CCN(C(CCC(=O)NCCC(=O)N2Cc3ccccc3C#Cc3ccccc32)C(=O)O)CCN(CC(=O)O)CC1 (stereo not shown) [Comparative Example 1, DOTAGA-DBCO]

- Purity (%) of compound at storage start [1]: 97.5%
- Purity (%) of compound after 1 month (stored at room temperature): 96.0%
- Purity (%) of compound after 7 days (stored at room temperature): 97.2%
SMILES: O=C(O)CN1CCN(CC(=O)O)CCN(C(CCC(=O)NCCC(=O)N2Cc3ccccc3C#Cc3ccccc32)C(=O)O)CCN(CC(=O)O)CC1 (stereo not shown) [Example 5, DOTAGA-DBCO]

- Purity (%) of compound at storage start (storage conditions: 40° C.): 97.6%
- Purity (%) of compound after 1 month (stored at 40° C.): 96.7%
- Purity (%) of compound after 3 months (stored at 40° C.): 93.9%
- Purity (%) of compound after 6 months (stored at 40° C.): 92.0%
- Purity (%) of compound after 7 days (stored at 40° C.): 96.9%
SMILES: O=C(O)CN1CCN(CC(=O)O)CCN(C(CCC(=O)NCCC(=O)N2Cc3ccccc3C#Cc3ccccc32)C(=O)O)CCN(CC(=O)O)CC1 (stereo not shown) [Example 2, DOTAGA-DBCO]
